According to paper PMC8247773, “Benzohydrazide and Phenylacetamide Scaffolds: New Putative ParE Inhibitors” (Frontiers in Bioengineering and Biotechnology, 2021):
≈ marks a conversion by molar mass, not a printed value. Where “and” joins values, the source holds several entries; their conditions need not be identical. Identical values can stand only once. Like-named read-outs stand apart in the source and are kept apart here.

Experiments:
[1] = system: E. coli; experiment: Checkerboard synergy with FDA approved drugs; format: cell-based, Escherichia coli; settings: ciprofloxacin, gentamicin, rifampicin and doxycycline
[2] = system: E. coli; experiment: Post antibiotic effect (PAE); format: cell-based, Escherichia coli; settings: for Time for 1 log10: untreated control 2 h
[3] = system: MRSA (ATCC43300); experiment: Antibacterial susceptibility test, microbroth dilution MIC; format: cell-based, methicillin-resistant Staphylococcus aureus; settings: mean ± SD
[4] = system: Vero cells
[5] = system: Escherichia coli (NCIM 2567); parameters: method as in Yele et al., 2020, 2021; settings: ref Yele et al., 2020, 2021; cited from earlier work
[6] = system: MRSA (NCIM 5021); experiment: Minimum bactericidal concentration (MBC); format: cell-based, methicillin-resistant Staphylococcus aureus
Protocol: (§1) MBC can be defined as the minimum concentration of a compound required to kill the bacteria over a fixed period under precise conditions. […] Colonies were counted, and colony forming unit (CFU) per milliliter was calculated.

[7] = system: MRSA (ATCC43300); experiment: Minimum bactericidal concentration (MBC); format: cell-based, methicillin-resistant Staphylococcus aureus
Protocol: as §1

[8] = system: Bacillus subtilis (NCIM 2545); parameters: method as in Yele et al., 2020, 2021; settings: ref Yele et al., 2020, 2021; cited from earlier work
[9] = system: Mycobacterium tuberculosis (NCIM 2984); parameters: method as in Yele et al., 2020, 2021; settings: ref Yele et al., 2020, 2021; cited from earlier work
[10] = system: Vero cells; experiment: In vitro cytotoxicity MTT assay; settings: CC50 Vero cells / IC50
[11] = system: Staphylococcus aureus (NCIM 5022); parameters: method as in Yele et al., 2020, 2021; settings: ref Yele et al., 2020, 2021; cited from earlier work
[12] = system: Staphylococcus epidermis (NCIM 2493); parameters: method as in Yele et al., 2020, 2021; settings: ref Yele et al., 2020, 2021; cited from earlier work
[13] = target: T1, E. coli ParE enzyme (Escherichia coli, UniProt P20083); experiment: E. coli ParE ATPase enzyme inhibition assay (ProFoldin kit, malachite green); format: biochemical; settings: ATPase activity, mean ± SD (n = 3)
T1 construct: purchased ProFoldin, Hudson, United States
T1 sequence (P20083 whole entry): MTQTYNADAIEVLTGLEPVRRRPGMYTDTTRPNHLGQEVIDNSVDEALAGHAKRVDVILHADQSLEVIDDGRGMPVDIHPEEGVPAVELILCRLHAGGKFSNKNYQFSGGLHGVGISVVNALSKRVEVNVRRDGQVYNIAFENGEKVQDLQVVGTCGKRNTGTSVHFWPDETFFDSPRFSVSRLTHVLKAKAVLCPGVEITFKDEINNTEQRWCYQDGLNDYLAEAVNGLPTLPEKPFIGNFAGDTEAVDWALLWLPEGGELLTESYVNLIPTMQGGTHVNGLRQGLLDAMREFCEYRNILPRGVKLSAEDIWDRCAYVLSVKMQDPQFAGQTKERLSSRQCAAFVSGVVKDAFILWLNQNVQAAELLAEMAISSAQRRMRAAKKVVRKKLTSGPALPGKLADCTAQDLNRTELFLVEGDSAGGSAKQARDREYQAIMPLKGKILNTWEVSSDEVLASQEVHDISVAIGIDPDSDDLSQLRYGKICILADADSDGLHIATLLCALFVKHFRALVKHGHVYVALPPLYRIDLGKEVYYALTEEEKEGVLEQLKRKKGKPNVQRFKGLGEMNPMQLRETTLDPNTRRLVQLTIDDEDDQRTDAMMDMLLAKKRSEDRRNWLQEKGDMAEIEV
T1 sequence (P0AFI2 whole entry, further chain): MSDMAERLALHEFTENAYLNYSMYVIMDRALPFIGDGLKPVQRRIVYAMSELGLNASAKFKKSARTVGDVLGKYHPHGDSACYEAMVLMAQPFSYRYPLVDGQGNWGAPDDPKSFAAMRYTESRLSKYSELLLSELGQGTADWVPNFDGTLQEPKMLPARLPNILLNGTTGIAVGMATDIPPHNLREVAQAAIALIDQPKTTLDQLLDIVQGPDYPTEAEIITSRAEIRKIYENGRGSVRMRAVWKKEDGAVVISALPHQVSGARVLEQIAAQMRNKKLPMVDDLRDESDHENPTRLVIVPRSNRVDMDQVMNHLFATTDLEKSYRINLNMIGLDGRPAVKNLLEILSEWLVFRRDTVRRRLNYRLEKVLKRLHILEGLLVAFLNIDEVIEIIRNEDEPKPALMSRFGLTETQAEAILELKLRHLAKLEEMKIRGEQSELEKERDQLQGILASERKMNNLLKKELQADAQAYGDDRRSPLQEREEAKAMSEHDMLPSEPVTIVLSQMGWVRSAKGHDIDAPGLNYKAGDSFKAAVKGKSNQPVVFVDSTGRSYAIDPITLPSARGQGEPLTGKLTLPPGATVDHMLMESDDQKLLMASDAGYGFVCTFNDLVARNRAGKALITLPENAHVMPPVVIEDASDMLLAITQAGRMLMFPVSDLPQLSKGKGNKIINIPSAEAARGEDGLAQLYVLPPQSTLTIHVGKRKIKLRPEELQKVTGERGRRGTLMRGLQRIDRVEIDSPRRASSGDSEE
Procedure, shortened: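 E. coli ParE ATPase activity measured as inorganic phosphate released from ATP hydrolysis in the presence of DNA. Reaction ran 1 h at 37°C, quenched with malachite green dye, absorbance read at 650 nm after 5 min. IC50 from non-linear regression against no-enzyme and no-compound controls.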

[14] = system: Klebsiella pneumonia (NCIM 2706); parameters: method as in Yele et al., 2020, 2021; settings: ref Yele et al., 2020, 2021; cited from earlier work
[15] = system: Pseudomonas aeruginosa (NCIM 2036); parameters: method as in Yele et al., 2020, 2021; settings: ref Yele et al., 2020, 2021; cited from earlier work
[16] = system: Escherichia coli (NCIM 2065); experiment: Antibacterial susceptibility test, microbroth dilution MIC; format: cell-based; settings: E. Coli (NCIM 2065), mean ± SD
[17] = system: E. coli; experiment: Time-kill kinetics; format: cell-based, Escherichia coli; settings: 0.5× and 1.0× MIC, 0-24 h
Protocol: Bactericidal activity was evaluated for the compounds by the time-kill kinetics. […] 50 μL aliquot of the culture was inoculated at regular time intervals of 0, 2, 4, 8, 16, and 24 h onto the solidified agar plates, followed by incubation at 37°C for 24 h. Ciprofloxacin is used as a reference throughout the study. CFU was calculated by the colonies formed on the agar plate at each time interval. Time-kill curves were plotted using the CFU/mL of surviving bacteria at each time point in the absence or presence of the compound ([Tsuji et al., 2008]).

[18] = system: MRSA (NCIM 5021); experiment: Antibacterial susceptibility test, microbroth dilution MIC; format: cell-based, methicillin-resistant Staphylococcus aureus; settings: mean ± SD
[19] = system: Escherichia coli (NCIM 2065); experiment: Minimum bactericidal concentration (MBC); format: cell-based; settings: E. Coli (NCIM 2065); for MBC/MIC: ratio ≤2 bactericidal, ≥4 tolerance
Protocol: as §1

[20] = system: Salmonella typhi (NCIM 2501); parameters: method as in Yele et al., 2020, 2021; settings: ref Yele et al., 2020, 2021; cited from earlier work
[21] = In vitro cytotoxicity MTT assay; settings: African green monkey, Vero cells
[22] = Staphylococcus aureus, read-out: Minimum inhibitory concentration
[23] = Staphylococcus aureus, read-out: MBC

## O=C(COc1ccccc1NC(=O)CCl)Nc1ccc(C(=O)O)cc1Br [Compound 5]
[1]
  Synergy with FDA-approved antibiotics: synergized
[2]; 1 × mic
  PAE = T - C: 1 h
  Time for 1 log10: 3 h
[2]; 10 × mic
  PAE = T - C: ~2 h
  Time for 1 log10: 4 h
[3]
  Minimum inhibitory concentration: 0.68 µg/mL and 0.68 ± 0.08 µg/mL
[4]
  CC50: 61.7583 µg/mL (≈ 140 µM)
[5]
  Minimum inhibitory concentration (MIC) E. c: 8.25
[6]
  MBC: 1.54 ± 0.11 µg/mL (≈ 3.49 µM)
  MBC/MIC: 2
[7]
  MBC: 0.68 ± 0.08 µg/mL (≈ 1.54 µM)
  MBC/MIC: 1
[8]
  Minimum inhibitory concentration (MIC) B. s: 7.82
[9]
  Minimum inhibitory concentration (MIC) M. t: 0.78
[10]
  SI (CC50/IC50): 176.4531
[11]
  Minimum inhibitory concentration (MIC) S. a: 2.64
[12]
  Minimum inhibitory concentration (MIC) S. e: 5.63
[13]
  IC50 against E. coli ParE enzyme: 0.35 ± 0.03 µg/mL (≈ 0.792 µM)
[14]
  Minimum inhibitory concentration (MIC) K. p: 7.52
[15]
  Minimum inhibitory concentration (MIC) P. a: 6.25
[16]
  Minimum inhibitory concentration: 0.64 µg/mL and 0.64 ± 0.03 µg/mL
[17]
  Time-kill kinetics result: bactericidal property
[18]
  Minimum inhibitory concentration: 0.72 ± 0.05 µg/mL (≈ 1.63 µM)
[19]
  MBC: 0.64 ± 0.42 µg/mL (≈ 1.45 µM)
  MBC/MIC: 1

## O=C(CCl)Nc1ccccc1OCC(=O)Nc1ccc(C(=O)O)cc1[N+](=O)[O-] [Compound 8]
[3]; [22]
  MIC: 1.06 ± 0.12 µg/mL (≈ 2.6 µM)
[20]
  Minimum inhibitory concentration (MIC) S. t: 0.72
[5]
  Minimum inhibitory concentration (MIC) E. c: 0.70
[6]
  MBC/MIC: 1
[6]; [23]
  MBC: 0.63 ± 0.13 µg/mL (≈ 1.55 µM)
[7]
  MBC/MIC: 2
[7]; [23]
  MBC: 2.46 ± 0.12 µg/mL (≈ 6.03 µM)
[8]
  Minimum inhibitory concentration (MIC) B. s: 7.80
[9]
  Minimum inhibitory concentration (MIC) M. t: 1.38
[21]
  CC50 at 48 h: 257 µg/mL (≈ 630 µM)
[11]
  Minimum inhibitory concentration (MIC) S. a: 8.64
[12]
  Minimum inhibitory concentration (MIC) S. e: 4.83
[13]; read-out: IC50 against E. coli ParE enzyme (converted)
  IC50: 662 nM
[14]
  Minimum inhibitory concentration (MIC) K. p: 0.72
[15]
  Minimum inhibitory concentration (MIC) P. a: 0.69
[16]; Escherichia coli, NCIM2065, read-out: Minimum inhibitory concentration
  MIC: 0.93 ± 0.03 µg/mL (≈ 2.28 µM)
[18]; [22]
  MIC: 0.66 µg/mL (≈ 1.62 µM)
[18]
  Minimum inhibitory concentration: 0.66 ± 0.13 µg/mL (≈ 1.62 µM)
[19]
  MBC/MIC: 1
[19]; Escherichia coli, NCIM2065, read-out: MBC
  MBC: 0.93 ± 0.03 µg/mL (≈ 2.28 µM)
